Entries after “also recorded” stand apart in the source; their conditions may differ.
Tests used:
DAPK1 [1] = target: T1, DAPK1 (Homo sapiens, UniProt P53355); assay: Caliper microfluidics capillary electrophoresis high-throughput enzymatic assay for DAPK1; type: biochemical
T1 construct: First the catalytic domain of DAPK1 (residues 1–285) was cloned,[14] expressed in Escherichia coli, and purified; made in house; host or cells: Escherichia coli
Source text: For this, we established a high-throughput enzymatic screening assay for DAPK1. […] This peptide was used in a Caliper microfluidics capillary electrophoresis assay, which separates phosphorylated peptide product from the non-phosphorylated peptides in microcapillaries. The fluorescently labeled peptide enabled quantification in real time and thus determination of reaction velocities.

JAK2 = JAK2 (Homo sapiens, UniProt O60674); assay: Kinase selectivity screening, JAK2; type: biochemical
Procedure: (§1) Compound 6 was tested in primary screening against a number of other kinases (SRC, BLK, AKT3, JAK2, PAK4, PAK7, PIM1, PIM2, CAMKI, and CAMKII); 60 % inhibition at 10 μM compound was used as the cut-off limit. […] Thus 6 was clearly an interesting compound.

CAMKII [2] = assay: Kinase selectivity primary screening, CAMKII; type: biochemical; conditions: 60 % inhibition at 10 μM compound as cut-off limit
Procedure: as §1

[3] = target: T2, catalytic domain of DAPK1 (residues 1–285) (Homo sapiens, UniProt P53355); assay: Isothermal titration calorimetry (ITC); type: binding; conditions: n=4, read-out: equilibrium dissociation constant (Kd)
T2 construct: First the catalytic domain of DAPK1 (residues 1–285) was cloned,[14] expressed in Escherichia coli, and purified; made in house; host or cells: Escherichia coli
Procedure: as §1
Figure 3 Representative ITC of the catalytic domain of DAPK1 (residues 1–285) into 6.

PAK7 = PAK7 (Homo sapiens, UniProt Q9P286); assay: Kinase selectivity screening, PAK7; type: biochemical
Procedure: as §1

SRC = SRC (Homo sapiens, UniProt P12931); assay: Kinase selectivity screening, SRC; type: biochemical
Procedure: as §1

PIM1 = PIM1 (Homo sapiens, UniProt P11309); assay: Kinase selectivity screening, PIM1; type: biochemical
Procedure: as §1

DAPK1 [4] = target: T1, DAPK1; assay: In vitro phosphorylation assay with DAPK1 (analytical HPLC); type: biochemical; conditions: for phosphorylation by DAPK1 (peptide as substrate): peptide 50 μM, ATP 100 μM, n=3
Source text: CaMKII and DAPK1 share a number of notable structural and functional properties. In particular both kinases harbor a calmodulin-binding sequence and an autoregulatory domain (ARD) next to the catalytic domain and are therefore regulated by calmodulin (or proteins with calmodulin-like domains).[10] There are also notable differences between the two kinases, for example DAPK1 is active only in its non-phosphorylated form,[11] whereas activation of CaMKII is more complex.[12] […] Thus it is proposed that phosphorylation of Ser1303 and co-localization are responsible for the regulation of calcium influx by NMDA receptors (Figure 1). To investigate the mechanistic details of DAPK1/NMDA receptor interactions further, including differences between GluN2A and GluN2B, we used in vitro phosphorylation assays. First the catalytic domain of DAPK1 (residues 1–285) was cloned,[14] expressed in Escherichia coli, and purified; the reference substrate Peptide38[2d] ([…]) and the 13-mer peptide N2B13 (1, GluN2B1292–1304, […]; Figure 2 A) were prepared. […] Thus, clearly Ser1303 in 1 is not phosphorylated by DAPK1 in vitro.
(§2) Figure 2 Comparison of peptide substrates containing Ser1303 (GluN2B) or Ser1291 (GluN2A). A) Alignment of peptides used in in vitro phosphorylation studies. B) Phosphorylation by DAPK1. C) Phosphorylation by CaMKII. Control substrates are shown with dashed lines. Degrees of phosphorylation were assessed by analytical HPLC (n=3, mean±SD). Concentration: peptide 50 μM, ATP 100 μM, kinase concentration was adjusted to fit the timescale. For further details see the Supporting Information.
(§3) This prompted us to examine related peptides derived from GluN2B and GluN2A (Figure 2 A) and we compared in vitro phosphorylation of these peptides by using both recombinant DAPK1 and CaMKII. […] Next we studied the corresponding 13- and 23-mer GluN2A peptides, N2A13 (4, GluN2A1280–1292, […]) and N2A23 (5, GluN2A1280–1302, […]); for both, Ser1291 corresponds to Ser1303 in GluN2B.

CAMKII [5] = assay: In vitro phosphorylation assay with CaMKII (analytical HPLC); type: biochemical; conditions: peptide 50 μM, ATP 100 μM, n=3
Procedure: as §2, §3

T1 sequence (P53355 1-285): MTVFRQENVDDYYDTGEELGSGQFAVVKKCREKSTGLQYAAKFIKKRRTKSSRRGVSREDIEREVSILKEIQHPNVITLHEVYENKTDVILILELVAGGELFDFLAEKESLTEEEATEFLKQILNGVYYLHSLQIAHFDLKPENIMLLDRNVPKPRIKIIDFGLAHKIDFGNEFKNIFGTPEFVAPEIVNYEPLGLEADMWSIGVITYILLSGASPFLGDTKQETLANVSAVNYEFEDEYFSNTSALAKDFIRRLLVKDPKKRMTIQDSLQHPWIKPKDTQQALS
Chain of PIM1 (P11309 whole entry, species assumed): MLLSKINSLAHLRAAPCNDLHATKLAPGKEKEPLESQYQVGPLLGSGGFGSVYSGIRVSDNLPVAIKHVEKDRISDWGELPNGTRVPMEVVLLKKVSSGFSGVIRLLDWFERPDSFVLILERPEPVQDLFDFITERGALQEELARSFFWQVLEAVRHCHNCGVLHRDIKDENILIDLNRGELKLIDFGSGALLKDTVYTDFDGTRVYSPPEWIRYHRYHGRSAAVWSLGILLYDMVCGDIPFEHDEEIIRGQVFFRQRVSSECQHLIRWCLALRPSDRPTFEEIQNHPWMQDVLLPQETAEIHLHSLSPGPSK
Chain of JAK2 (O60674 whole entry, species assumed): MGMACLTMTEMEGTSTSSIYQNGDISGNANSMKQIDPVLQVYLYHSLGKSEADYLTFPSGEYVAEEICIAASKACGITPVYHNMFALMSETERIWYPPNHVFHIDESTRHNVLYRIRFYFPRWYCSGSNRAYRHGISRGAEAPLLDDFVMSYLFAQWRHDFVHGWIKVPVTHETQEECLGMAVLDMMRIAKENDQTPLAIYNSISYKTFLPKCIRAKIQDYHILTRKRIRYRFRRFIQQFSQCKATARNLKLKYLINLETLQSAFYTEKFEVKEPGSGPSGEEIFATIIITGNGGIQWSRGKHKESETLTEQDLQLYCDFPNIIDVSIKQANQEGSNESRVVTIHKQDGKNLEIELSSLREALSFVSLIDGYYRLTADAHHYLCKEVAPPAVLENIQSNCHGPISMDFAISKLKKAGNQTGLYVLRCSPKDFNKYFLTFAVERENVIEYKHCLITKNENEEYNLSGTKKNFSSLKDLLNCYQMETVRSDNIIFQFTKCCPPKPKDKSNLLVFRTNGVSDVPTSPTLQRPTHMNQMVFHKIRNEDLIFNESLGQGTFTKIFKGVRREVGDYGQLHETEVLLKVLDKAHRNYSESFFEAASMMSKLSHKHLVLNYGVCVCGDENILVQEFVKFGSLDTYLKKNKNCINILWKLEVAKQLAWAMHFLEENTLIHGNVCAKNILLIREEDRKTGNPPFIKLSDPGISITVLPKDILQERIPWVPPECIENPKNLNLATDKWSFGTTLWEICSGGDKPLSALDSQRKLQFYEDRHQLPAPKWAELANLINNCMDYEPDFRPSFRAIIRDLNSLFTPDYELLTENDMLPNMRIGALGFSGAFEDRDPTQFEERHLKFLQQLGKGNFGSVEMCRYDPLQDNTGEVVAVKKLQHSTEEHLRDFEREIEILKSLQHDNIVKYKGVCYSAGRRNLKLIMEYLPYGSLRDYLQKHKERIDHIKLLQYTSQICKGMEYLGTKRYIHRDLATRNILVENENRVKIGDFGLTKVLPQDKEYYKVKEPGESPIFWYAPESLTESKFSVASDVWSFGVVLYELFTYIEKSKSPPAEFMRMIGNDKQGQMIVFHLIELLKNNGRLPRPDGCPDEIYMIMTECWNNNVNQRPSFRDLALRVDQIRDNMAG
Chain of PAK7 (Q9P286 whole entry, species assumed): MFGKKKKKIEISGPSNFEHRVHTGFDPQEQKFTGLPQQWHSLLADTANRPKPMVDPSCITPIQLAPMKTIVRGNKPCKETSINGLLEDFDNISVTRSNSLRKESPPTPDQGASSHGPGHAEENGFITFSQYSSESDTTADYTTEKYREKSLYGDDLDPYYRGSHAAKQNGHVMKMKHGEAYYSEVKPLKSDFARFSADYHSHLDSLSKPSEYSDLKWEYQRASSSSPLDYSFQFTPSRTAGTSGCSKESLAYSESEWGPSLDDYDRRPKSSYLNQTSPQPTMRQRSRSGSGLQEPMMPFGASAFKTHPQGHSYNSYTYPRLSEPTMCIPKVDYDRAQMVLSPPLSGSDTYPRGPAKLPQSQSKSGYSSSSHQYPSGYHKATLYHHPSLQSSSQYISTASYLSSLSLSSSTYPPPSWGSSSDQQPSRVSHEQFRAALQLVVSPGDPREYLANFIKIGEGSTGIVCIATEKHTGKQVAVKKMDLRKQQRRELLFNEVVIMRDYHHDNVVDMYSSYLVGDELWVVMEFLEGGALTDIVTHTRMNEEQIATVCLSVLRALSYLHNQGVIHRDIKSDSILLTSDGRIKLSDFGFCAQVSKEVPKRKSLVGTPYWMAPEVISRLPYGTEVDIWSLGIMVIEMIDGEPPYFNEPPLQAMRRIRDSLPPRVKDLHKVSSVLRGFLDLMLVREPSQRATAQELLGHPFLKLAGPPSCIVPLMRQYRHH
Chain of SRC (P12931 whole entry, species assumed): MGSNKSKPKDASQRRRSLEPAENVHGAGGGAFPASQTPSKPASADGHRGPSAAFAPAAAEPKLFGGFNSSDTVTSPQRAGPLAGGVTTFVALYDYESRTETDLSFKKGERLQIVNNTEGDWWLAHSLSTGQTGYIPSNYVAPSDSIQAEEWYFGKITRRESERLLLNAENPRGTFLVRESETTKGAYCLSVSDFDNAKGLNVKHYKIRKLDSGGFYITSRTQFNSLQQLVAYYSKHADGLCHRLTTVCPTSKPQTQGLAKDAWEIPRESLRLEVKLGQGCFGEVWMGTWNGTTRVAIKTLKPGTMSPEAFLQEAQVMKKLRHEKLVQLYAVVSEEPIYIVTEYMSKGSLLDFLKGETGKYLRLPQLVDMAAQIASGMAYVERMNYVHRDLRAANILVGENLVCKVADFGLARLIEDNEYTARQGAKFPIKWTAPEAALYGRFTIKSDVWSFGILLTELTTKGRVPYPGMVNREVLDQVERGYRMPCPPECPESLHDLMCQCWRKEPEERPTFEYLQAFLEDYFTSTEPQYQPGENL
T2 sequence (P53355 1-285): as the sequence (P53355 1-285) above

Row | Compound | phosphorylation by CaMKII (peptide as substrate) (CAMKII [5]) | phosphorylation by DAPK1 (peptide as substrate) (DAPK1 [4]) | also measured
1 | Nc1ncnc2c1ncn2[C@@H]1O[C@H](COP(=O)(O)OP(=O)(O)OP(=O)(O)O)[C@@H](O)[C@H]1O [ATP] |  |  | Km (DAPK1 [1]; DAPK1, read-out: Km for ATP): 1240 nM
2 | COc1cc(-c2ccc3ncc(-c4cccc(C(=O)NCCN(C)C)c4)n3n2)ccc1O [Compound 6] |  |  | IC50 (JAK2): 1800 nM; IC50 (DAPK1 [1]; DAPK1, Caliper assay, 5FAM-Peptide38 substrate, ATP approximately 2×Km): 247 nM; primary screening (CAMKII [2]): did not to pass the primary screening; Kd [3]: 240 ± 90 nM; IC50 (PAK7): 5.6 µM; IC50 (SRC): 150 nM; IC50 (PIM1): 1600 nM; inhibition in the in vitro phosphorylation assay (DAPK1 [4]; DAPK1): showed inhibition
3 | KKNRKKNRNKLRRQHAYDTFVDLQKEE [Peptide 3, N2B23 with Ser1303 substituted with Ala] | neither the longer GluN2B peptide, N2B23 (2), nor its Ala mutant, 3, was phosphorylated | prevented phosphorylation | 
4 | KKNRKKNRNKLRRQHSYDTFVDLQKEE [Peptide 2, 23-mer GluN2B peptide with ten additional C-terminal amino acids] | neither the longer GluN2B peptide, N2B23 (2), nor its Ala mutant, 3, was phosphorylated | phosphorylation to a degree similar to that for the reference substrate | 
5 | KKNRNKLRQHSY [Peptide 1, 13-mer peptide N2B13, GluN2B1292–1304] | phosphorylated in a similar manner | strongly repressed | inhibitory effect on phosphorylation of peptide 2 (DAPK1 [4]; DAPK1, in vitro, data not shown): no in vitro inhibitory effect; also recorded: did not observe any effect
6 | KKRPQRRYSNVF [peptide38, reference compound] |  | excellent substrate | 
7 | QKNKLRISRQHSY [Peptide 4, 13-mer GluN2A peptide] | phosphorylated at a similar rate and to the same degree as the control peptide | none of these peptides was phosphorylated | 
8 | QKNKLRISRQHSYDNIVDKPREL [Peptide 5, 23-mer GluN2A peptide] | phosphorylated at a similar rate and to the same degree as the control peptide | none of these peptides was phosphorylated | 
